Source: ChEMBL document CHEMBL1153505, “Free and bound state structures of 6-O-methyl homoerythromycins and epitope mapping of their interactions with ribosomes” (Bioorg Med Chem, 2009)

Target: Bacterial 70S ribosome
Test: Inhibition of Escherichia coli ribosome
Assay type: subcellular

Structure (SMILES)	IC50 [µM]
CC[C@H]1OC(=O)[C@H](C)[C@@H](O)[C@H](C)[C@@H](O[C@@H]2O[C@H](C)C[C@H](N(C)C)[C@H]2O)[C@](C)(OC)C[C@@H](C)NC(=O)[C@H](C)[C@@H](O)[C@]1(C)O	> 100
CC[C@H]1OC(=O)[C@H](C)[C@@H](O)[C@H](C)[C@@H](O[C@@H]2O[C@H](C)C[C@H](N(C)C)[C@H]2O)[C@](C)(OC)C[C@@H](C)C(=O)N[C@H](C)[C@@H](O)[C@]1(C)O	> 100
CC[C@H]1OC(=O)[C@H](C)[C@@H](O[C@H]2C[C@@](C)(OC)[C@@H](O)[C@H](C)O2)[C@H](C)[C@@H](O[C@@H]2O[C@H](C)C[C@H](N(C)C)[C@H]2O)[C@](C)(O)C[C@@H](C)CN(C)[C@H](C)[C@@H](O)[C@]1(C)O [AZITHROMYCIN]	0.3
CC[C@H]1OC(=O)[C@H](C)[C@@H](O[C@H]2C[C@@](C)(OC)[C@@H](O)[C@H](C)O2)[C@H](C)[C@@H](O[C@@H]2O[C@H](C)C[C@H](N(C)C)[C@H]2O)[C@](C)(OC)C[C@@H](C)C(=O)N[C@H](C)[C@@H](O)[C@]1(C)O	1.3
CC[C@H]1OC(=O)[C@H](C)[C@@H](O[C@H]2C[C@@](C)(OC)[C@@H](O)[C@H](C)O2)[C@H](C)[C@@H](O[C@@H]2O[C@H](C)C[C@H](N(C)C)[C@H]2O)[C@](C)(OC)C[C@@H](C)NC(=O)[C@H](C)[C@@H](O)[C@]1(C)O	0.1
